Measured values taken from patent US12226412B2, “Heteroaryl-ketone fused azadecalin glucocorticoid receptor modulators” (Corcept Therapeutics, Inc., priority 2012, dated 2025).
Read-outs that look alike come from different tables or passages of the source.

How the values were obtained:
human recombinant GR = target: T1, human recombinant GR (Homo sapiens, UniProt P04150); assay: Human glucocorticoid receptor (GR) fluorescence polarisation (FP) binding assay
T1 construct: purchased PanVera P2812
T1 sequence (P04150 1-777): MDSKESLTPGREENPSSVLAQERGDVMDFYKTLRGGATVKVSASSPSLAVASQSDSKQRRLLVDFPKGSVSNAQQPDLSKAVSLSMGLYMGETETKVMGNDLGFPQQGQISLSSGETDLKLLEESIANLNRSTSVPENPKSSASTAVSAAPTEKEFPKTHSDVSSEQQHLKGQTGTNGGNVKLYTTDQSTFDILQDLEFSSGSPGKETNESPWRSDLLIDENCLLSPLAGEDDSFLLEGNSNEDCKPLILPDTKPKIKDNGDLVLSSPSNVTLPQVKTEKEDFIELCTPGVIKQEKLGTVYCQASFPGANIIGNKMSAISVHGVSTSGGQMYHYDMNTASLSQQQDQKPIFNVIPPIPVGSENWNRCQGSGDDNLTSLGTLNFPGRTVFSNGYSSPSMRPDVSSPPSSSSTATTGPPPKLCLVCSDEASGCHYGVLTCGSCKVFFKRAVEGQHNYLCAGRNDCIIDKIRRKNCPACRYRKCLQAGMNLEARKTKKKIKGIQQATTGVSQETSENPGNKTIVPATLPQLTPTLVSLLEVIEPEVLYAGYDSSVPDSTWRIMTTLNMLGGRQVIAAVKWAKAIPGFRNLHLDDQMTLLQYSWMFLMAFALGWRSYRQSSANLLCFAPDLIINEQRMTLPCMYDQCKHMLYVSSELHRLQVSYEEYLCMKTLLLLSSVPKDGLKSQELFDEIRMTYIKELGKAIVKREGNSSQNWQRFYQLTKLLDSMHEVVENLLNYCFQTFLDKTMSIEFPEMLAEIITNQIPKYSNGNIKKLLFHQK
In short: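 Competition fluorescence polarisation: 0.5 nM GS Red labelled glucocorticoid and 1 nM recombinant human GR with 8-point half-log compound series, 1% DMSO, 4 h room temperature, potassium phosphate pH 7.4 buffer with molybdate, EDTA, DTT. Affinity derived from the drop in polarisation, normalised to blank wells.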

[1] = system: induction of TAT by dexamethasone in HepG2 cells; assay: HepG2 tyrosine aminotransferase (TAT) assay; type: cell-based, human
[2] = human recombinant GR, fluorescence polarisation binding assay, read-out: GR binding
[3] = HepG2 cells, challenge of 100 nM dexamethasone, Ki from IC50 by Cheng and Prusoff equation

Structure (SMILES)	Ki (human recombinant GR; [2]) [nM]	Ki [1, 3] [nM]	Ki (human recombinant GR) [nM]	Ki [1] [nM]
Cc1nnc(C(=O)[C@]23Cc4cnn(-c5ccc(F)cc5)c4C=C2CCN(S(=O)(=O)c2ccc(C(F)(F)F)cc2)C3)o1 [Example 1D, (R)-(1-(4-fluorophenyl)-6-((4-(trifluoromethyl)phenyl)sulfonyl)-4,4a,5,6,7,8-hexahydro-1H-pyrazolo[3,4-g]isoquinolin-4a-yl)(5-methyl-1,3,4-oxadiazol-2-yl)methanone]	> 1	≥ 100	–	–
COc1cccc(S(=O)(=O)N2CCC3=Cc4c(cnn4-c4ccc(F)cc4)C[C@]3(C(=O)c3nccs3)C2)c1 [Example 12B, (R)-(1-(4-fluorophenyl)-6-((3-methoxyphenyl)sulfonyl)-4,4a,5,6,7,8-hexahydro-1H-pyrazolo[3,4-g]isoquinolin-4a-yl)(thiazol-2-yl)methanone]	0.5 to 1	20 to 100	–	–
O=C(c1cscn1)[C@]12Cc3cnn(-c4ccc(F)cc4)c3C=C1CCN(S(=O)(=O)c1ccc(C(F)(F)F)cc1)C2 [Example 11, (R)-(1-(4-fluorophenyl)-6-((4-(trifluoromethyl)phenyl)sulfonyl)-4,4a,5,6,7,8-hexahydro-1H-pyrazolo[3,4-g]isoquinolin-4a-yl)(thiazol-4-yl)methanone]	–	20 to 100	< 0.5	–
N#Cc1cccc(S(=O)(=O)N2CCC3=Cc4c(cnn4-c4ccc(F)cc4)C[C@]3(C(=O)c3ccccn3)C2)c1 [Example 11G, (R)-3-((1-(4-fluorophenyl)-4a-picolinoyl-4a,5,7,8-tetrahydro-1H-pyrazolo[3,4-g]isoquinolin-6 (4H)-yl)sulfonyl)benzonitrile]	–	–	< 0.5	< 20
Cn1ncc(S(=O)(=O)N2CCC3=Cc4c(cnn4-c4ccc(F)cc4)C[C@]3(C(=O)c3nccs3)C2)n1 (single isomer, unassigned) [Example 12Z]	< 0.5	≥ 100	–	–
Cc1cccc(S(=O)(=O)N2CCC3=Cc4c(cnn4-c4ccc(F)cc4)C[C@]3(C(=O)c3cccc(C)n3)C2)c1 [Example 12H, (R)-(1-(4-fluorophenyl)-6-(m-tolylsulfonyl)-4,4a,5,6,7,8-hexahydro-1H-pyrazolo[3,4-g]isoquinolin-4a-yl)(6-methylpyridin-2-yl)methanone]	< 0.5	< 20	–	–
CCCn1cc(S(=O)(=O)N2CCC3=Cc4c(cnn4-c4ccc(F)cc4)C[C@]3(C(=O)c3cscn3)C2)cn1 [Example 11CZ, (R)-(1-(4-fluorophenyl)-6-((1-propyl-1H-pyrazol-4-yl)sulfonyl)-4,4a,5,6,7,8-hexahydro-1H-pyrazolo[3,4-g]isoquinolin-4a-yl)(thiazol-4-yl)methanone]	< 0.5	< 20	–	–
Cn1ccc(S(=O)(=O)N2CCC3=Cc4c(cnn4-c4ccc(F)cc4)C[C@]3(C(=O)c3cc(C(F)(F)F)ccn3)C2)n1 [Example 11BI, (R)-(1-(4-fluorophenyl)-6-((1-methyl-1H-pyrazol-3-yl)sulfonyl)-4,4a,5,6,7,8-hexahydro-1H-pyrazolo[3,4-g]isoquinolin-4a-yl)(4-(trifluoromethyl)pyridin-2-yl)methanone]	< 0.5	< 20	–	–
Cc1ccc(S(=O)(=O)N2CCC3=Cc4c(cnn4-c4ccc(F)cc4)C[C@]3(C(=O)c3ccccn3)C2)cc1 [Example 2O, (R)-(1-(4-fluorophenyl)-6-tosyl-4,4a,5,6,7,8-hexahydro-1H-pyrazolo [3,4-g]isoquinolin-4a-yl)(pyridin-2-yl)methanone]	–	< 20	< 0.5	–
Cc1ccnc(C(=O)[C@]23Cc4cnn(-c5ccc(F)cc5)c4C=C2CCN(S(=O)(=O)c2ccnn2C)C3)c1 [Example 11AJ, (R)-(1-(4-fluorophenyl)-6-((1-methyl-1H-pyrazol-5-yl)sulfonyl)-4,4a,5,6,7,8-hexahydro-1H-pyrazolo[3,4-g]isoquinolin-4a-yl)(4-methylpyridin-2-yl)methanone]	< 0.5	< 20	–	–
CC(C)n1ncc(S(=O)(=O)N2CCC3=Cc4c(cnn4-c4ccc(F)cc4)C[C@]3(C(=O)c3ccccn3)C2)n1 [Example 11CT, (R)-(1-(4-fluorophenyl)-6-((2-isopropyl-2H-1,2,3-triazol-4-yl)sulfonyl)-4,4a,5,6,7,8-hexahydro-1H-pyrazolo[3,4-g]isoquinolin-4a-yl)(pyridin-2-yl)methanone]	< 0.5	< 20	–	–
Cn1cc(S(=O)(=O)N2CCC3=Cc4c(cnn4-c4ccc(F)cc4)C[C@]3(C(=O)c3cc(C(F)(F)F)ccn3)C2)nn1 [Example 11CG, (R)-(1-(4-fluorophenyl)-6-((1-methyl-1H-1,2,3-triazol-4-yl)sulfonyl)-4,4a,5,6,7,8-hexahydro-1H-pyrazolo[3,4-g]isoquinolin-4a-yl)(4-(trifluoromethyl)pyridin-2-yl)methanone]	< 0.5	< 20	–	–
Cc1ccnc(C(=O)[C@]23Cc4cnn(-c5ccc(F)cc5)c4C=C2CCN(S(=O)(=O)c2cc(C)nn2C)C3)c1 [Example 11BA, (R)-(6-((1,3-dimethyl-1H-pyrazol-5-yl)sulfonyl)-1-(4-fluorophenyl)-4,4a,5,6,7,8-hexahydro-1H-pyrazolo[3,4-g]isoquinolin-4a-yl)(4-methylpyridin-2-yl)methanone]	< 0.5	< 20	–	–
O=C(c1ccccn1)[C@]12Cc3cnn(-c4ccc(F)cc4)c3C=C1CCN(S(=O)(=O)c1ccc(N3CCOCC3)nc1)C2 [Example 3, (R)-(1-(4-fluorophenyl)-6-((6-morpholinopyridin-3-yl)sulfonyl)-4,4a,5,6,7,8-hexahydro-1H-pyrazolo[3,4-g]isoquinolin-4a-yl)(pyridin-2-yl)methanone]	< 0.5	20 to 100	–	–
CCc1ccc(S(=O)(=O)N2CCC3=Cc4c(cnn4-c4ccc(F)cc4)C[C@]3(C(=O)c3ccccn3)C2)cc1 [Example 2D, (R)-(6-((4-ethylphenyl)sulfonyl)-1-(4-fluorophenyl)-4,4a,5,6,7,8-hexahydro-1H-pyrazolo[3,4-g]isoquinolin-4a-yl)(pyridin-2-yl)methanone]	< 0.5	< 20	–	–
Cn1nccc1S(=O)(=O)N1CCC2=Cc3c(cnn3-c3ccc(F)cc3)C[C@]2(C(=O)c2cc(C(F)(F)F)ccn2)C1 [Example 11BM, (R)-(1-(4-fluorophenyl)-6-((1-methyl-1H-pyrazol-5-yl)sulfonyl)-4,4a,5,6,7,8-hexahydro-1H-pyrazolo[3,4-g]isoquinolin-4a-yl)(4-(trifluoromethyl)pyridin-2-yl)methanone]	< 0.5	< 20	–	–
CCn1cc(S(=O)(=O)N2CCC3=Cc4c(cnn4-c4ccc(F)cc4)C[C@]3(C(=O)c3cc(C(F)(F)F)ccn3)C2)nn1 [Example 11CM, (R)-(6-((1-ethyl-1H-1,2,3-triazol-4-yl)sulfonyl)-1-(4-fluorophenyl)-4,4a,5,6,7,8-hexahydro-1H-pyrazolo[3,4-g]isoquinolin-4a-yl)(4-(trifluoromethyl)pyridin-2-yl)methanone]	< 0.5	< 20	–	–
Cc1ccnc(C(=O)[C@]23Cc4cnn(-c5ccc(F)cc5)c4C=C2CCN(S(=O)(=O)c2cn[nH]c2C)C3)c1 [Example 11BD, (R)-(1-(4-fluorophenyl)-6-((5-methyl-1H-pyrazol-4-yl)sulfonyl)-4,4a,5,6,7,8-hexahydro-1H-pyrazolo[3,4-g]isoquinolin-4a-yl)(4-methylpyridin-2-yl)methanone]	< 0.5	20 to 100	–	–
O=C(c1ccccn1)[C@]12Cc3cnn(-c4ccc(F)cc4)c3C=C1CCN(S(=O)(=O)c1cncc(F)c1)C2 [Example 5F, (R)-(1-(4-fluorophenyl)-6-((5-fluoropyridin-3-yl)sulfonyl)-4,4a,5,6,7,8-hexahydro-1H-pyrazolo[3,4-g]isoquinolin-4a-yl)(pyridin-2-yl)methanone]	< 0.5	20 to 100	–	–
CCCn1cc(S(=O)(=O)N2CCC3=Cc4c(cnn4-c4ccc(F)cc4)C[C@]3(C(=O)c3nccs3)C2)cn1 [Example 12Y, (R)-(1-(4-fluorophenyl)-6-((1-propyl-1H-pyrazol-4-yl)sulfonyl)-4,4a,5,6,7,8-hexahydro-1H-pyrazolo[3,4-g]isoquinolin-4a-yl)(thiazol-2-yl)methanone]	< 0.5	< 20	–	–
O=C(c1nccs1)[C@]12Cc3cnn(-c4ccc(F)cc4)c3C=C1CCN(S(=O)(=O)c1ccc(C(F)(F)F)c(F)c1)C2 [Example 12K, (R)-(6-((3-fluoro-4-(trifluoromethyl)phenyl)sulfonyl)-1-(4-fluorophenyl)-4,4a,5,6,7,8-hexahydro-1H-pyrazolo[3,4-g]isoquinolin-4a-yl)(thiazol-2-yl)methanone]	< 0.5	20 to 100	–	–
